Legend:
RARγ [1] = biological target: T1, RARγ (Mus musculus, UniProt P18911); assay: Retinoid receptor competition binding assay, RARγ; conditions: competition with 1.0 nM [3H]-all-trans-RA
T1 construct: expressed in transfected cells; host or cells: CV-1 cells
T1 sequence (P18911 1-458): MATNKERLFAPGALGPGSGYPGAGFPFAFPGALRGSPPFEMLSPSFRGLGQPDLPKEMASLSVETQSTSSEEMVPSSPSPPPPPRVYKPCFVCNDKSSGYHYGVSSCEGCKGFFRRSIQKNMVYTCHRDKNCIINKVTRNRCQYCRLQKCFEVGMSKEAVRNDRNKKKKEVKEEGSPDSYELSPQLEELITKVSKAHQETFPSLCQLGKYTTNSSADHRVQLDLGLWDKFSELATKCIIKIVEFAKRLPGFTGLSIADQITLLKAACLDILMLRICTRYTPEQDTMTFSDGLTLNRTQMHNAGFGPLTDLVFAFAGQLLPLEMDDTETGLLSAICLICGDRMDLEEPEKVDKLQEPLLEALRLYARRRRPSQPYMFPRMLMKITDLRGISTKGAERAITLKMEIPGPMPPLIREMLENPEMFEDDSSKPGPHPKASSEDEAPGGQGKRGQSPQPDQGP

CRABPII = biological target: T2, CRABPII (Mus musculus, UniProt P22935); assay: CRABP competition binding assay, CRABPII; conditions: for IC50: competition with [3H]-all-trans-RA
T2 construct: Wild-type full-length cDNAs for mouse CRABPI and CRABPII were subcloned into the prokaryotic expression vector pRSETB; pRSETB vector fusion leader (purified on Ni-NTA, so a His tag); made in house; host or cells: Escherichia coli BL21(DE3)pLys
T2 sequence (P22935 1-138): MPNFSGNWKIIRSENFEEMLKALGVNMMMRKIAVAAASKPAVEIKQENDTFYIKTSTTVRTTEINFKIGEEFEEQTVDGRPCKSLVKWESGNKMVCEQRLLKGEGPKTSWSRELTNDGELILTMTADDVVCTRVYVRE
Method: Wild-type full-length cDNAs for mouse CRABPI and CRABPII were subcloned into the prokaryotic expression vector pRSETB and transformed into Escherichia coli strain BL21(DE3)pLys ([Chen et al, 1995]). Recombinant fusion proteins were prepared essentially as we have described previously using Ni-NTA resin ([Chen et al, 1995]). The binding of each RAMBA to CRABPI and CRABPII was determined by competition binding assays as described previously ([Chen et al, 1995]). […] IC50 values were calculated as described above in the RAR binding studies.

RARα = biological target: T3, RARα (Mus musculus, UniProt P11416); assay: Transactivation assay (RARE-CAT reporter, CV-1 cells), RARα; format: cell-based; conditions: 50% of maximal activity obtained with 10^−6 M all-trans-RA
T3 sequence (P11416 1-462): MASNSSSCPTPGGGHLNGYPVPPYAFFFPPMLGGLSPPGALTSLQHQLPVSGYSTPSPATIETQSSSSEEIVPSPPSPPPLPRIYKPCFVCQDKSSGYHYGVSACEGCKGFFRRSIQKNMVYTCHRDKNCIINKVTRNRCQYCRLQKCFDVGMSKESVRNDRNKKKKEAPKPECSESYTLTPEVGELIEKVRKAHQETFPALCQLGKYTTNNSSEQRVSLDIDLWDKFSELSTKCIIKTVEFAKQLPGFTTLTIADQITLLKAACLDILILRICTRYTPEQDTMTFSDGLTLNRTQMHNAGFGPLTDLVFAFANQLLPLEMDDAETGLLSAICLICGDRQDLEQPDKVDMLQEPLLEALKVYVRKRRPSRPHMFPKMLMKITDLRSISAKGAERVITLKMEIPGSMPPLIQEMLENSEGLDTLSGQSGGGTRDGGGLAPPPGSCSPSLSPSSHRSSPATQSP
Method: (§1) Briefly, CV-1 cells were cotransfected with 4 μg RAR subtype (RARα, RARβ or RARγ) expression vector construct in pSG5, 4 μg RARE-CAT reporter DNA and 1 μg pCMV-β-gal DNA. Twenty-four hours following transfection, the cells were treated with various concentrations of each RAMBA ranging from 10^−11–10^−5 M along with an ethanol carrier control. Additional cells were treated with 10^−6 M all-trans-RA for normalisation. Twenty-four hours later, the cells were harvested and CAT and β-gal activities were assayed.

RARγ [2] = biological target: T1, RARγ; assay: Transactivation assay (RARE-CAT reporter, CV-1 cells), RARγ; format: cell-based; conditions: 50% of maximal activity obtained with 10^−6 M all-trans-RA
Method: as §1

CRABPI = biological target: T4, CRABPI (Mus musculus, UniProt P62965); assay: CRABP competition binding assay, CRABPI; conditions: competition with [3H]-all-trans-RA; read-out: CRAPBI IC50
T4 construct: Wild-type full-length cDNAs for mouse CRABPI and CRABPII were subcloned into the prokaryotic expression vector pRSETB; pRSETB vector fusion leader (purified on Ni-NTA, so a His tag); made in house; host or cells: Escherichia coli BL21(DE3)pLys
T4 sequence (P62965 whole entry, the tested form may be a part): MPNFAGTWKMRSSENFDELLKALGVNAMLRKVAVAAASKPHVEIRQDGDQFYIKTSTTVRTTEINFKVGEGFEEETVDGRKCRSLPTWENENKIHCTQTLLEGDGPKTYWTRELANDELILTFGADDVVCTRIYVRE
Method: IC50 values were calculated as described above in the RAR binding studies.

T47D cells = assay: Cell cycle analysis by flow cytometry (PI), T47D; format: cell-based, human; conditions: 5 μM, 6 days (4-HPR 4 days)
Method: MCF-7 and T47D cells were plated in T-25 flasks and allowed to adhere for about 18 h. The cells were then synchronised by growing them in low-serum OPTI-MEM I medium for 2 days. […] After 6-day treatment, the cells were trypsinised, washed twice with PBS, centrifuged at 2500 r.p.m. to obtain a cell pellet. The cells (about 1–2 × 10^6) were fixed with 3 ml of 70% ethanol (by adding drop-wise and taking care that the cells are not clumped together). Cells were kept at −20°C until further analysis (at least overnight). Next, cells (∼1–2 × 10^6) were stained with 1 ml of propidium iodide (PI) (50 μg ml^−1)/RNase (100 μg ml^−1) solution and after about half an hour the fluorescence of stained nuclei (15 000 events) was analysed by flow cytometry (Becton Dickinson FACScan Instrument and quantification by Modfit LT version 3.1 software) with excitation wavelength of 488 nm. The percentage of G1, S, G2/M and sub-G1 (apoptotic cells) in the population of treated and untreated cells were determined.

CC1=C(/C=C/C(C)=C/C=C/C(C)=C\C(=O)Nc2ccc(O)cc2)C(C)(C)CCC1n1ccnc1 (centres unmarked) [VN/69-1]
IC50 (RARγ [1]): > 1 µM | IC50 (CRABPII): > 0.5 µM | EC50 (RARα): > 10 µM | EC50 (RARγ [2]): > 10 µM | IC50 (CRABPI): > 0.5 µM | G2/M (%) (T47D cells): 21.01±0.99% | Go/G1 (%) (T47D cells): 78.99±0.99% | S (%) (T47D cells): 0% | Sub-G1 (%) (T47D cells): 24.34±1.24%

CC1=C(/C=C/C(C)=C/C=C/C(C)=C/C(=O)O)C(C)(C)CCC1n1ccnc1 (centres unmarked) [VN/14-1]
IC50 (RARγ [1]): 0.016 µM | IC50 (CRABPII): > 0.5 µM | EC50 (RARα): 0.3 µM | EC50 (RARγ [2]): 1 µM | IC50 (CRABPI): > 0.5 µM | G2/M (%) (T47D cells): 20.85±3.75% | Go/G1 (%) (T47D cells): 77.98±2.56% | S (%) (T47D cells): 1.18±1.0% | Sub-G1 (%) (T47D cells): 22.38±2.95%

CC1=C(/C=C/C(C)=C/C=C/C(C)=C/C(=O)Nc2ccc(O)cc2)C(C)(C)CCC1n1ccnc1 (centres unmarked) [VN/66-1]
IC50 (RARγ [1]): > 1 µM | IC50 (CRABPII): > 0.5 µM | EC50 (RARα): > 10 µM | EC50 (RARγ [2]): > 10 µM | IC50 (CRABPI): > 0.5 µM | G2/M (%) (T47D cells): 19.57±0.21% | Go/G1 (%) (T47D cells): 80.44±0.20% | S (%) (T47D cells): 0% | Sub-G1 (%) (T47D cells): 26.41±1.18%

CC1=C(/C=C/C(C)=C/C=C/C(C)=C/C(=O)O)C(C)(C)CCC1 [ATRA, all-trans-retinoic acid, reference compound]
Kd (CRABPII; for comparison): 0.06 µM | G2/M (%) (T47D cells): 13.03±4.06% | Go/G1 (%) (T47D cells): 83.89±0.96% | S (%) (T47D cells): 3.1±1.3% | Sub-G1 (%) (T47D cells): 17.12±4.06%
